Results from patent US8586307B2, “Methods for diagnosing epigenetic, transgenerational effects of environmental toxicants on mammalian germ-lines and treating associated diseases” (priority 2005, dated 2013).

Experiments:
[1] = tested on: pregnant females; test: Ovary and pregnancy outcomes in vinclozolin generation females; assay type: in vivo, rat; conditions: preliminary data
Description: The abnormal phenotype has similarities to pre-eclampsia that include death, severe anemia and blood cell defects, occurring in approximately 15% of all pregnancies in vinclozolin-generation females. Other disease states, as such as prostate abnormalities, tumor development, abnormal immune system activation and premature aging, may be induced by the epigenetic transgenerational actions of the endocrine disruptors.

[2] = tested on: epididymal sperm; conditions: rat, in vivo
Procedure: (§1) In Vivo Procedures: Gestating outbred Sprague-Dawley and inbred Fisher mother rats from timed, pregnant colonies housed at the Washington State University Vivarium, were given intraperitoneal injections of vinclozolin (100 mg/kg/day) and methoxychlor (200 mg/kg/day) from embryonic day 8-15 (E8-E15, sperm positive vaginal smear date=E0) of gestation (F0 generation) as previously described. Gestating mothers administered vehicle, sesame oil or DMSO, served as controls. At least 6 lines (individual F0 injected females) were generated for controls and treated groups for these analyses. Male rats from control and treated groups were collected at P60-P180 for analyses. F1 treated males were bred to F1 treated females to generate the F2 treated generation and F2 treated males were bred to F2 treated females to generate the F3 generation and the F3 were bred in the same manner to generate the F4 generation. Rats for the control groups were bred in the same manner for all the generations. No inbreeding or sibling crosses were generated. The outcross group (VOC) were generated by breeding the F2 treated males with wild-type females (total of 6 litters) and reverse outcross group (RVOC) was generated by breeding F2 treated females with wild-type males (total of 3 litters). Control (n=4) and treated (n=4) male offspring from the F1 generation from Fisher strain rats were collected at P6 for DNA methylation analysis, see below. All procedures have been approved by the Washington State University Animal Care Committee. […]
Sperm Motility and Concentration Analysis: Animals were sacrificed and cauda epididymal sperm motility was determined using cauda epididymal sperm. […] All the motile sperm including rapid progressive, slow progressive and non-progressive were counted according to WHO category. Percent ratio of the motile sperm to the total number of sperm including immotile sperm was calculated. Epididymal sperm count was determined using the same epididymis sample according to a previously described method with some modifications.

[3] = tested on: spermatogenic cells; test: Spermatogenic cell apoptosis in testis sections (TUNEL) after transient embryonic exposure; conditions: rat, in vivo
Procedure: as §1, with “Committee. The number of animals used for replicates in the experiments (i.e. n value) are as follows for vinclozolin treatment: F1 (control 11, treated 12); F2 (control 19, treated 30); F3 (control 19, treated 26); F4 (control 10, treated 17); VOC (18); and RVOC (6).” for “Committee.”
Detection of Cell Apoptosis: To detect apoptotic cells in testis sections, the Fluorescien In Situ Cell Death Detection Kit (Roche Applied Science, Indianapolis, Ind.) was utilized. […] Fluorescent apoptotic cells were imaged on a confocal microscope and quantitation of number of apoptotic cells per testis cross section. […]

[4] = tested on: male rats; conditions: rat, in vivo
Procedure: (§2) In Vivo Procedures: Gestating outbred Sprague-Dawley and inbred Fisher mother rats from timed, pregnant colonies housed at the Washington State University Vivarium, were given intraperitoneal injections of vinclozolin (100 mg/kg/day) and methoxychlor (200 mg/kg/day) from embryonic day 8-15 (E8-E15, sperm positive vaginal smear date=E0) of gestation (F0 generation) as previously described. Gestating mothers administered vehicle, sesame oil or DMSO, served as controls. At least 6 lines (individual F0 injected females) were generated for controls and treated groups for these analyses. Male rats from control and treated groups were collected at P60-P180 for analyses. F1 treated males were bred to F1 treated females to generate the F2 treated generation and F2 treated males were bred to F2 treated females to generate the F3 generation and the F3 were bred in the same manner to generate the F4 generation. Rats for the control groups were bred in the same manner for all the generations. No inbreeding or sibling crosses were generated. The outcross group (VOC) were generated by breeding the F2 treated males with wild-type females (total of 6 litters) and reverse outcross group (RVOC) was generated by breeding F2 treated females with wild-type males (total of 3 litters). Control (n=4) and treated (n=4) male offspring from the F1 generation from Fisher strain rats were collected at P6 for DNA methylation analysis, see below. All procedures have been approved by the Washington State University Animal Care Committee. The number of animals used for replicates in the experiments (i.e. n value) are as follows for vinclozolin treatment: F1 (control 11, treated 12); F2 (control 19, treated 30); F3 (control 19, treated 26); F4 (control 10, treated 17); VOC (18); and RVOC (6). For methoxychlor treatment animal number was for F1 (control 6, treated 9) and F2 (control 16, treated 22).
Histology: Tissues were fixed in Bouin's (Amresco, Solon Ohio) and embedded in paraffin, and then sections stained with hematoxylin and eosin, according to standard procedures. The n=50 treated vinclozolin, n=42 controls.

[5] = General observations (body weight, litter size, serum testosterone, other tissues); assay type: in vivo, rat
Procedure: as §2

[6] = tested on: F1 generation testis; conditions: cited from earlier work

## C=CC1(C)OC(=O)N(c2cc(Cl)cc(Cl)c2)C1=O (centres unmarked) [vinclozolin]
[1]; F1, F2 and F3 generation pregnant females
  pregnancies with abnormal phenotype similar to pre-eclampsia (death, severe anemia, blood cell defects): approximately 15%
[1]
  effect on the female ovary: no major effect
[2]; male
  sperm forward motility reduced: approximately 20%
  sperm numbers reduced: approximately 20%
[2]
  sperm number and motility in outcross (VOC) males: decrease
[3]; male
  males analyzed that had the increased spermatogenic cell apoptosis: Greater than 90%
[3]
  effect on the spermatogenic cells in reverse outcross (RVOC): no effect
  spermatogenic cell apoptosis in outcross (VOC) males: increase
[4]; male
  animals that developed a dramatic decrease in spermatogenic capacity: approximately 20%
  animals with infertility associated with small testis and severely reduced spermatogenesis: 4 animals
  transgenerational animals that developed complete infertility: 8%
[4]
  histology of the testis, control versus treated: similar
  infertility in outcrossed (VOC) males: increased infertility
  infertility in reverse outcross (RVOC): no infertility
[5]; all the animals
  serum testosterone levels: normal
[5]; rat, in vivo
  effect on total body weight: no effect
  gross abnormality in any other tissues examined: No gross abnormality
  litter size, newborn pup weights or testis weight per body weight: no change
[6]; gestating mother exposed E8-E15, 100 or 200 mg/kg i.p. daily
  adult F1 generation testis phenotype: reduced spermatogenic capacity, increased spermatogenic cell apoptosis and decreased sperm number and motility
[6]; rat, in vivo
  effect on the F1 generation testis: no effect
